Results from US6114381A, “Non-heterocyclic β-phenyl-α-aminopropionic acid n-phenyl amides for treatment of neurotoxic injury” (priority 1998, dated 2000).
Counter-ions that a name gives are not always drawn. Like-named read-outs stand apart in the source and are kept apart here.

Assays:
PCP receptors = assay: Radioreceptor assay (3H-TCP displacement, rat brain membranes); conditions: read-out: Ki apparent, 1 nM 3H-TCP, whole rat brain membranes, 1 h incubation, Cheng & Prusoff
NMDA [1] = conditions: Berry et al, Eur. J. Pharm. 1983; binding and behavioral data; cited from earlier work
[2] = tested on: rat cerebral cortical membranes; conditions: Goldman et al, FEBS Lett.; cited from earlier work
[3] = tested on: CAl region of the hippocampus; assay: Forebrain ischemia assay (carotid occlusion, CA1 hippocampal cell loss); type: in vivo, Mongolian gerbil; conditions: 30 mg/kg i.p. 30 min prior to carotid occlusion; 7 days after; n=6 vs 69 saline gerbils; Mann-Whitney U, p<0.005
Procedure: Male Mongolian gerbils, 50-70 gm, were used as subjects. Compound No. 4 (30 mg/kg) was injected i.p. 30 minutes prior to carotid occlusion into 6 gerbils. In preparation for surgical procedures, the animals were lightly anesthetized with methoxyflurane and placed upside down on a heated pad with the animal's snout within a nosecone. A mixture of 70 parts nitrous oxide, 30 parts oxygen and 0.5 part halothane was circulated through the nosecone to provide continuous anesthesia throughout the surgical procedure. A midline incision was made in the neck and the carotid arteries were exposed. A length of suture thread was placed under each carotid. The thread was then tightened around each carotid and pressure applied to the thread to insure flow was occluded. Flow was occluded for 4-5 minutes and then the thread was removed. The carotids were visually inspected to confirm that reflow had occurred. The wound was then closed with autoclips and the gerbils allowed to recover. Following surgery, the gerbils were kept alive for 7 days. They were anesthetized with 100 mg/kg sodium pentobarbital and perfused transcardially with saline (with heparin) followed by buffered formalin. The brain was removed, trimmed and prepared for histological processing. Sections (10 microns) were stained with thionin. […]

[4] = Behavioral assay (stereotyped behavior, PCP rating scale); type: in vivo, rat (male Sprague-Dawley)
Procedure: Compound No. 4 was tested by an in vivo assay which determined stereotypic behavior in rats treated with the compound. Male Sprague-Dawley rats weighing 200 to 250 g were used in the behavioral experiments. Each rat was used only once. Rats were anesthetized lightly with ether before a 20-gauge needle was used to make a hole in the rat's skull for i.c.v. injection of drugs at a later date. These rats were allowed to recover for at least 1 day before being used in the behavioral assays. On the day of the experiement, rats were placed individually into plastic rat cages and allowed at least 1 hr to acclimate before testing. Drugs were administered to rats in a random, single-blind fashion. Behavioral ratings were taken at 5-min intervals up to 1 hr after drug administration (i.p.) using the PCP rating scale as described by Sturgeon et al [Sturgeon, R. D., Fessler, R. G. and Meltzer, H. Y., "Behavioral Rating Scales for Accessing Phencyclidine-Induced Locomotor Activity. […] Dose-response curves for each treatment were determined at the time of maximal behavioral effect. […] ED50 values and dose-response curves were evaluated using a computerized Finney assay [Statistical Methods in Biological Assays, 2nd Edn., Hatner Pub. […] The ability of the Compound No. 4 to induce stereotyped behavior was assessed at 2.5, 5 and 10 minutes and thereafter every 5 min up to 1 hr after i.p. administration.

NMDA [5] = conditions: Anis et al, Br. J. Pharmacol. 1983; cited from earlier work

Cc1cc(O)cc(C)c1C[C@H](N)C(=O)N1CC(C)Cc2ccccc21 (single isomer, unassigned) [Compound No. 6, 1-[-2S-amino-3-(4-hydroxy-2,6-dimethlyphenyl)-1-oxopropyl]-1,2,3,4-tetrahydro-3-methylquinoline, hydrochloride]
Ki (PCP receptors; hydrochloride): 240 nM

Cc1cc(O)cc(C)c1C[C@H](N)C(=O)N1CC(C)Cc2ccccc21 (single isomer, unassigned) [Compound No. 7, 1-[2S-amino-3-(4-hydroxy-2,6-dimethylphenyl)-1-oxopropyl]-1,2,3,4-tetrahydro-3-methylquinoline, hydrochloride]
Ki (PCP receptors; hydrochloride): 880 nM

CC1CCCN(C2(c3ccccc3)CCCCC2)C1 (single isomer, unassigned; (+)) [(+)-PCMP, (+)-1-(1-phenylcyclohexyl)-3-methylpiperidine]
stereoselective effect over corresponding isomer in reducing the excitatory action of NMDA (NMDA [1]): confirmed
inhibition of specific binding of [3H]PCP [2]: potent inhibitor

N[C@@H](Cc1ccc(O)cc1)C(=O)N1CCCc2ccccc21 [Compound No. 1, 1-[2S-amino-3-(4-hydroxyphenyl)-1-oxopropyl]-1,2,3,4-tetrahydroquinoline, monohydrochloride]
Ki (PCP receptors): 7100 nM

Cc1cc(O)ccc1C[C@H](N)C(=O)N1CCCc2ccccc21 [Compound No. 2, 1-[2S-amino-3-(4-hydroxy-2-methylphenyl)-1-oxopropyl]-1,2,3,4-tetrahydroquinoline, monohydrochloride]
Ki (PCP receptors): 800 nM

Cc1cc(O)cc(C)c1C[C@H](N)C(=O)N(C)c1ccccc1 [Compound No. 3, αS-amino-4-hydroxy-N,2,6-trimethyl-N-phenylbenzenepropanamide, monohydrochloride]
Ki (PCP receptors): 2600 nM

Cc1cc(O)cc(C)c1C[C@H](N)C(=O)N1CCCc2ccccc21 [Compound No. 4, 1-[2S-amino-3-(4-hydroxy-2,6-dimethylphenyl)-1-oxopropyl]-1,2,3,4-tetrahydroquinoline, monohydrochloride]
cell loss in CA1 [3]: significantly reduced
Ki (PCP receptors): 16 nM
ED50 ([4]; Rattus norvegicus, ip, rats, PCP rating scale, at time of maximal effect, read-out: ED50 for induction of stereotyped behavior): 11 mg/kg

Cc1cc(O)cc(C)c1C[C@@H](N)C(=O)N1CCCc2ccccc21 [Compound No. 5, 1-[2R-amino-3-(4-hydroxy-2,6-dimethylphenyl)-1-oxopropyl]-1,2,3,4-tetrahydroquinoline, monohydrochloride]
Ki (PCP receptors): 100 nM

Cc1cc(O)cc(C)c1C[C@H](N)C(=O)N1CCc2ccccc21 [Compound No. 8, 1-[2S-amino-3-(4-hydroxy-2,6-dimethylphenyl)-1-oxopropyl]-2,3-dihydro-1H-indole, monohydrochloride]
Ki (PCP receptors): 1450 nM

COc1ccc2c(c1)CCCN2C(=O)[C@@H](N)Cc1c(C)cc(O)cc1C [Compound No. 9, 1-[2S-amino-3-(4-hydroxy-2,6-dimethylphenyl)-1-oxopropyl]-1,2,3,4-tetrahydro-6-methoxyquinoline, monohydrochloride]
Ki (PCP receptors): 4100 nM

COc1cc(C)c(C[C@H](N)C(=O)N2CCCc3ccccc32)c(C)c1 [Compound No. 10, 1-[2S-amino-3-(4-methoxy-2,6-dimethylphenyl)-1-oxopropyl]-1,2,3,4-tetrahydroquinoline, monohydrochloride]
Ki (PCP receptors): 4500 nM

Cc1cc(O)cc(C)c1C[C@H](N)C(=O)N1CCCc2cccc(O)c21 [Compound No. 11, 1-[2S-amino-3-(4-hydroxy-2,6-dimethylphenyl)-1-oxopropyl]-1,2,3,4-tetrahydro-8-hydroxyquinoline, monohydrochloride]
Ki (PCP receptors): 420 nM

Cc1cc(O)cc(C)c1C[C@H](N)C(=O)N1Cc2ccccc2CCc2ccccc21 [Compound No. 12, 5-[2S-amino-3-(4-hydroxy-2,6-dimethylphenyl)-1-oxopropyl]-5,6,11,12-tetrahydrodibenz[b,f]azocine, monohydrochloride]
Ki (PCP receptors): 20000 nM

c1ccc(C2(N3CCCCC3)CCCCC2)cc1 [PCP, Phencyclidine, reference compound]
reduction of excitatory effects of NMDA as compared to KA and QUIS (NMDA [5]): reduce selectively the excitatory effects of NMDA
Ki (PCP receptors): 96 nM
time of peak effects (stereotyped behavior) ([4]; PCP 2.0-32 mg/kg i.p.): 15 min

c1csc(C2(N3CCCCC3)CCCCC2)c1 [TCP, reference compound]
Ki (PCP receptors): 20 nM

CC1CCC(c2ccccc2)(N2CCCCC2)CC1 (stereo not drawn) [cis-N-(1-phenyl-4-methylcyclohexyl)piperidine]
stereoselective effect over corresponding isomer in reducing the excitatory action of NMDA (NMDA [1]): confirmed

CNC1(c2ccccc2Cl)CCCCC1=O (stereo not shown) [ketamine]
reduction of excitatory effects of NMDA as compared to KA and QUIS (NMDA [5]): reduce selectively the excitatory effects of NMDA
